From patent publication US10227344B2, “CK2 inhibitors, compositions and methods thereof” (Polaris Pharmaceuticals, Inc., priority 2016, dated 2019)

Experiments:
Assay type in all cases: cell-based
[1] = system: PC3; experiment: Cancer cell panel, cell viability (resazurin): Prostate, PC3; conditions: 72 hours, labelled drug combined with Example 3
[2] = system: LnCap; experiment: Cancer cell panel, cell viability (resazurin): Prostate, LnCap; conditions: 72 hours, labelled drug combined with Example 3
[3] = system: SKOV-3; experiment: Cancer cell panel, cell viability (resazurin): Ovarian, SKOV-3; conditions: SKOV-3 (Ovarian), 72 hours; labelled drug combined with Example 3
[4] = system: A2780; experiment: Cancer cell panel, cell viability (resazurin): Ovarian, A2780; conditions: 72 hours, labelled drug combined with Example 3
[5] = system: Caov-3; experiment: Cancer cell panel, cell viability (resazurin): Ovarian, Caov-3; conditions: Caov-3 (Ovarian), 72 hours; labelled drug combined with Example 3
[6] = system: Mia-Paca-2; experiment: Cancer cell panel, cell viability (resazurin): Pancreatic, Mia-Paca-2; conditions: Mia-Paca-2 (Pancreatic), 72 hours; labelled drug combined with Example 3
[7] = system: Panc-1; experiment: Cancer cell panel, cell viability (resazurin): Pancreatic, Panc-1; conditions: Panc-1 (Pancreatic), 72 hours; labelled drug combined with Example 3
[8] = system: BxPC3; experiment: Cancer cell panel, cell viability (resazurin): Pancreatic, BxPC3; conditions: 72 hours, labelled drug combined with Example 3
[9] = system: HCT116; experiment: Cancer cell panel, cell viability (resazurin): Colon, HCT116; conditions: 72 hours, labelled drug combined with Example 3
[10] = system: Colo205; experiment: Cancer cell panel, cell viability (resazurin): Colon, Colo205; conditions: 72 hours, labelled drug combined with Example 3
[11] = system: LoVo; experiment: Cancer cell panel, cell viability (resazurin): Colon, LoVo; conditions: 72 hours, labelled drug combined with Example 3
[12] = system: DLD-1; experiment: Cancer cell panel, cell viability (resazurin): Colon, DLD-1; conditions: DLD-1 (Colon), 72 hours; labelled drug combined with Example 3
[13] = system: H1299; experiment: Cancer cell panel, cell viability (resazurin): NSCLC, H1299; conditions: 72 hours, labelled drug combined with Example 3
[14] = system: A549; experiment: Cancer cell panel, cell viability (resazurin): NSCLC, A549; conditions: 72 hours, labelled drug combined with Example 3
[15] = system: H460; experiment: Cancer cell panel, cell viability (resazurin): NSCLC, H460; conditions: 72 hours, labelled drug combined with Example 3
[16] = system: H1975; experiment: Cancer cell panel, cell viability (resazurin): NSCLC, H1975; conditions: 72 hours, labelled drug combined with Example 3
[17] = system: H23; experiment: Cancer cell panel, cell viability (resazurin): NSCLC, H23; conditions: 72 hours, labelled drug combined with Example 3
[18] = system: H2122; experiment: Cancer cell panel, cell viability (resazurin): NSCLC, H2122; conditions: 72 hours, labelled drug combined with Example 3
[19] = system: SkBr-3; experiment: Cancer cell panel, cell viability (resazurin): Breast, SkBr-3; conditions: SkBr-3 (Breast), 72 hours; labelled drug combined with Example 3
[20] = system: MDA-MB-453; experiment: Cancer cell panel, cell viability (resazurin): Breast, MDA-MB-453; conditions: MDA-MB-453 (Breast), 72 hours; labelled drug combined with Example 3
[21] = system: MDA-MB-231; experiment: Cancer cell panel, cell viability (resazurin): Breast, MDA-MB-231; conditions: MDA-MB-231 (Breast), 72 hours; labelled drug combined with Example 3
[22] = system: MDA-MB-157; experiment: Cancer cell panel, cell viability (resazurin): Breast, MDA-MB-157; conditions: MDA-MB-157 (Breast), 72 hours; labelled drug combined with Example 3
[23] = system: BT-20; experiment: Cancer cell panel, cell viability (resazurin): Breast, BT-20; conditions: BT-20 (Breast), 72 hours; labelled drug combined with Example 3
[24] = system: ZR-75-1; experiment: Cancer cell panel, cell viability (resazurin): Breast, ZR-75-1; conditions: ZR-75-1 (Breast), 72 hours; labelled drug combined with Example 3
[25] = system: T47D; experiment: Cancer cell panel, cell viability (resazurin): Breast, T47D; conditions: 72 hours, labelled drug combined with Example 3
[26] = system: 786-O; experiment: Cancer cell panel, cell viability (resazurin): Renal, 786-O; conditions: 786-O (Renal), 72 hours; labelled drug combined with Example 3
[27] = system: ACHN; experiment: Cancer cell panel, cell viability (resazurin): Renal, ACHN; conditions: 72 hours, labelled drug combined with Example 3
[28] = system: Caki-1; experiment: Cancer cell panel, cell viability (resazurin): Renal, Caki-1; conditions: Caki-1 (Renal), 72 hours; labelled drug combined with Example 3
[29] = system: Caki-2; experiment: Cancer cell panel, cell viability (resazurin): Renal, Caki-2; conditions: Caki-2 (Renal), 72 hours; labelled drug combined with Example 3
[30] = system: A375; experiment: Cancer cell panel, cell viability (resazurin): Melanoma, A375; conditions: 72 hours, labelled drug combined with Example 3
[31] = system: SK-MEL-3; experiment: Cancer cell panel, cell viability (resazurin): Melanoma, SK-MEL-3; conditions: SK-MEL-3 (Melanoma), 72 hours; labelled drug combined with Example 3
[32] = system: SK-MEL-24; experiment: Cancer cell panel, cell viability (resazurin): Melanoma, SK-MEL-24; conditions: SK-MEL-24 (Melanoma), 72 hours; labelled drug combined with Example 3
[33] = system: WM-115; experiment: Cancer cell panel, cell viability (resazurin): Melanoma, WM-115; conditions: WM-115 (Melanoma), 72 hours; labelled drug combined with Example 3
[34] = system: MeWO; experiment: Cancer cell panel, cell viability (resazurin): Melanoma, MeWO; conditions: 72 hours, labelled drug combined with Example 3
[35] = system: U266; experiment: Cancer cell panel, cell viability (resazurin): multiple myeloma, U266; conditions: 72 hours, labelled drug combined with Example 3
[36] = system: U87MG; experiment: Cancer cell panel, cell viability (resazurin): Glioblastoma, U87MG; conditions: 72 hours, labelled drug combined with Example 3
[37] = system: Raji; experiment: Cancer cell panel, cell viability (resazurin): Burkitt's Lymphoma, Raji; conditions: 72 hours, labelled drug combined with Example 3
[38] = system: Daudi; experiment: Cancer cell panel, cell viability (resazurin): Burkitt's Lymphoma, Daudi; conditions: 72 hours, labelled drug combined with Example 3
[39] = system: NAMALWA; experiment: Cancer cell panel, cell viability (resazurin): Burkitt's Lymphoma, NAMALWA; conditions: 72 hours, labelled drug combined with Example 3
[40] = system: HL60; experiment: Cancer cell panel, cell viability (resazurin): Leukemia, HL60; conditions: 72 hours, labelled drug combined with Example 3
[41] = system: EOL-1; experiment: Cancer cell panel, cell viability (resazurin): Leukemia, EOL-1; conditions: EOL-1 (Leukemia), 72 hours; labelled drug combined with Example 3
[42] = system: MOLT4; experiment: Cancer cell panel, cell viability (resazurin): Leukemia, MOLT4; conditions: 72 hours, labelled drug combined with Example 3

With N.N.[Cl][Pt][Cl] [Cisplatin, cisplatin] the “synergy, additivity or antagonism of the combination of Example 3 with the anti-cancer drug” value (shortened to “synergy, additivity or antagonism”) [1] was “+ (Additive relative to each agent alone (CI = 0.9-1 by Bliss Independence Model and <0.9 by Highest Single Agent Model))”, the “synergy, additivity or antagonism” value [2] was “+ + (Slight synergy relative to each agent alone (CI = 0.75-0.9 by Bliss Independence Model))” and the “synergy, additivity or antagonism” value [3] was “+ (Additive relative to each agent alone (CI = 0.9-1 by Bliss Independence Model and <0.9 by Highest Single Agent Model))”. For the same molecule, the “synergy, additivity or antagonism” value [4] was “+ + + + (Strong synergy relative to each agent alone (CI < 0.4 by Bliss Independence Model))”, the “synergy, additivity or antagonism” value [5] was “+ (Additive relative to each agent alone (CI = 0.9-1 by Bliss Independence Model and <0.9 by Highest Single Agent Model))” and the “synergy, additivity or antagonism” value [6] was “+ (Additive relative to each agent alone (CI = 0.9-1 by Bliss Independence Model and <0.9 by Highest Single Agent Model))”. The “synergy, additivity or antagonism” value [7] was “+ (Additive relative to each agent alone (CI = 0.9-1 by Bliss Independence Model and <0.9 by Highest Single Agent Model))”, the “synergy, additivity or antagonism” value [8] was “+ (Additive relative to each agent alone (CI = 0.9-1 by Bliss Independence Model and <0.9 by Highest Single Agent Model))” and the “synergy, additivity or antagonism” value [9] was “+ (Additive relative to each agent alone (CI = 0.9-1 by Bliss Independence Model and <0.9 by Highest Single Agent Model))”. For the same molecule, the “synergy, additivity or antagonism” value [10] was “+ + (Slight synergy relative to each agent alone (CI = 0.75-0.9 by Bliss Independence Model))”, the “synergy, additivity or antagonism” value [11] was “+ + (Slight synergy relative to each agent alone (CI = 0.75-0.9 by Bliss Independence Model))” and the “synergy, additivity or antagonism” value [12] was “+ (Additive relative to each agent alone (CI = 0.9-1 by Bliss Independence Model and <0.9 by Highest Single Agent Model))”. For the same molecule, the “synergy, additivity or antagonism” value [13] was “+ (Additive relative to each agent alone (CI = 0.9-1 by Bliss Independence Model and <0.9 by Highest Single Agent Model))”, the “synergy, additivity or antagonism” value [14] was “+ + + + (Strong synergy relative to each agent alone (CI < 0.4 by Bliss Independence Model))” and the “synergy, additivity or antagonism” value [15] was “+ + (Slight synergy relative to each agent alone (CI = 0.75-0.9 by Bliss Independence Model))”. The “synergy, additivity or antagonism” value [16] was “+ (Additive relative to each agent alone (CI = 0.9-1 by Bliss Independence Model and <0.9 by Highest Single Agent Model))”, the “synergy, additivity or antagonism” value [17] was “+ + + (Synergy relative to each agent alone (CI = 0.4-0.74 by Bliss Independence Model))” and the “synergy, additivity or antagonism” value [18] was “+ + (Slight synergy relative to each agent alone (CI = 0.75-0.9 by Bliss Independence Model))”. For the same molecule, the “synergy, additivity or antagonism” value [19] was “+ + (Slight synergy relative to each agent alone (CI = 0.75-0.9 by Bliss Independence Model))”, the “synergy, additivity or antagonism” value [20] was “+ + (Slight synergy relative to each agent alone (CI = 0.75-0.9 by Bliss Independence Model))” and the “synergy, additivity or antagonism” value [21] was “+ (Additive relative to each agent alone (CI = 0.9-1 by Bliss Independence Model and <0.9 by Highest Single Agent Model))”. For the same molecule, the “synergy, additivity or antagonism” value [22] was “+ + + (Synergy relative to each agent alone (CI = 0.4-0.74 by Bliss Independence Model))”, the “synergy, additivity or antagonism” value [23] was “+ + (Slight synergy relative to each agent alone (CI = 0.75-0.9 by Bliss Independence Model))” and the “synergy, additivity or antagonism” value [24] was “+ (Additive relative to each agent alone (CI = 0.9-1 by Bliss Independence Model and <0.9 by Highest Single Agent Model))”. The “synergy, additivity or antagonism” value [25] was “+ (Additive relative to each agent alone (CI = 0.9-1 by Bliss Independence Model and <0.9 by Highest Single Agent Model))”, the “synergy, additivity or antagonism” value [26] was “+ + (Slight synergy relative to each agent alone (CI = 0.75-0.9 by Bliss Independence Model))” and the “synergy, additivity or antagonism” value [27] was “+ (Additive relative to each agent alone (CI = 0.9-1 by Bliss Independence Model and <0.9 by Highest Single Agent Model))”. The “synergy, additivity or antagonism” value [28] was “+ (Additive relative to each agent alone (CI = 0.9-1 by Bliss Independence Model and <0.9 by Highest Single Agent Model))”, the “synergy, additivity or antagonism” value [29] was “+ (Additive relative to each agent alone (CI = 0.9-1 by Bliss Independence Model and <0.9 by Highest Single Agent Model))” and the “synergy, additivity or antagonism” value [30] was “+ + (Slight synergy relative to each agent alone (CI = 0.75-0.9 by Bliss Independence Model))”. For the same molecule, the “synergy, additivity or antagonism” value [31] was “+ (Additive relative to each agent alone (CI = 0.9-1 by Bliss Independence Model and <0.9 by Highest Single Agent Model))”, the “synergy, additivity or antagonism” value [32] was “+ + (Slight synergy relative to each agent alone (CI = 0.75-0.9 by Bliss Independence Model))” and the “synergy, additivity or antagonism” value [33] was “+ + (Slight synergy relative to each agent alone (CI = 0.75-0.9 by Bliss Independence Model))”. The “synergy, additivity or antagonism” value [34] was “+ (Additive relative to each agent alone (CI = 0.9-1 by Bliss Independence Model and <0.9 by Highest Single Agent Model))”, the “synergy, additivity or antagonism” value [35] was “+ (Additive relative to each agent alone (CI = 0.9-1 by Bliss Independence Model and <0.9 by Highest Single Agent Model))” and the “synergy, additivity or antagonism” value [36] was “+ (Additive relative to each agent alone (CI = 0.9-1 by Bliss Independence Model and <0.9 by Highest Single Agent Model))”. For the same molecule, the “synergy, additivity or antagonism” value [37] was “+ + (Slight synergy relative to each agent alone (CI = 0.75-0.9 by Bliss Independence Model))”, the “synergy, additivity or antagonism” value [38] was “+ (Additive relative to each agent alone (CI = 0.9-1 by Bliss Independence Model and <0.9 by Highest Single Agent Model))” and the “synergy, additivity or antagonism” value [39] was “+ (Additive relative to each agent alone (CI = 0.9-1 by Bliss Independence Model and <0.9 by Highest Single Agent Model))”. For the same molecule, the “synergy, additivity or antagonism” value [40] was “+ (Additive relative to each agent alone (CI = 0.9-1 by Bliss Independence Model and <0.9 by Highest Single Agent Model))”, the “synergy, additivity or antagonism” value [41] was “+ + (Slight synergy relative to each agent alone (CI = 0.75-0.9 by Bliss Independence Model))” and the “synergy, additivity or antagonism” value [42] was “+ + (Slight synergy relative to each agent alone (CI = 0.75-0.9 by Bliss Independence Model))”.
